Where “and” joins values, the source holds several entries; their conditions need not be identical. Identical values can stand only once.
Assays:
Test in all cases: cells
KG-1 = format: functional, cell-based; settings: Homo sapiens
Description: SANGER: Inhibition of human KG-1 cell growth in a cell viability assay.

IST-MEL1 = format: functional, cell-based, Homo sapiens;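 note: growth inhibition of the cell line, read out with a cell viability assay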
Description: SANGER: Inhibition of human IST-MEL1 cell growth in a cell viability assay.

MOLT-16 = format: functional, cell-based; settings: Homo sapiens;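 note: growth inhibition of human MOLT-16 cells, read out with a cell viability assay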
Description: SANGER: Inhibition of human MOLT-16 cell growth in a cell viability assay.

MDA-MB-231 = format: functional, cell-based, Homo sapiens
Description: SANGER: Inhibition of human MDA-MB-231 cell growth in a cell viability assay.

BB49-HNC = format: functional, cell-based, Homo sapiens;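 note: cell viability assay read-out, reported as inhibition of BB49-HNC cell growth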
Description: SANGER: Inhibition of human BB49-HNC cell growth in a cell viability assay.

CHL-1 = format: functional, cell-based, Homo sapiens;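 note: cell growth inhibition, read out with a cell viability assay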
Description: SANGER: Inhibition of human CHL-1 cell growth in a cell viability assay.

LB2518-MEL = format: functional, cell-based, Homo sapiens;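 note: growth inhibition of human LB2518-MEL cells, measured with a cell viability assay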
Description: SANGER: Inhibition of human LB2518-MEL cell growth in a cell viability assay.

SW780 = format: functional, cell-based, Homo sapiens;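 note: growth inhibition of the cells, read out with a cell viability assay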
Description: SANGER: Inhibition of human SW780 cell growth in a cell viability assay.

BT-20 = format: functional, cell-based, Homo sapiens;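 note: cell viability assay measuring suppression of growth in human BT-20 cells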
Description: SANGER: Inhibition of human BT-20 cell growth in a cell viability assay.

KYSE-410 = format: functional, cell-based, Homo sapiens;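 note: growth inhibition of KYSE-410 cells, measured through a cell viability readout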
Description: SANGER: Inhibition of human KYSE-410 cell growth in a cell viability assay.

RH-1 = format: functional, cell-based, Homo sapiens;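 note: growth inhibition of human RH-1 cells, read out with a cell viability assay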
Description: SANGER: Inhibition of human RH-1 cell growth in a cell viability assay.

KYSE-150 cell line = format: functional, cell-based, Homo sapiens;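 note: growth inhibition of human KYSE-150 cells, read out with a cell viability assay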
Description: SANGER: Inhibition of human KYSE-150 cell growth in a cell viability assay.

MOLT-4 = format: functional, cell-based; settings: Homo sapiens;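 note: growth inhibition of MOLT-4 cells, determined with a cell viability readout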
Description: SANGER: Inhibition of human MOLT-4 cell growth in a cell viability assay.

SW1417 = format: functional, cell-based, Homo sapiens;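 note: growth inhibition of human SW1417 cells, read out with a cell viability assay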
Description: SANGER: Inhibition of human SW1417 cell growth in a cell viability assay.

ES5 = format: functional, cell-based, Homo sapiens;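 note: growth inhibition of human ES5 cells, read out by a cell viability assay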
Description: SANGER: Inhibition of human ES5 cell growth in a cell viability assay.

OVCAR-4 = format: functional, cell-based, Homo sapiens;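 note: growth inhibition of human OVCAR-4 cells, measured with a cell viability assay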
Description: SANGER: Inhibition of human OVCAR-4 cell growth in a cell viability assay.

QIMR-WIL = format: functional, cell-based; settings: Homo sapiens;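 note: growth inhibition of QIMR-WIL cells, read out with a cell viability assay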
Description: SANGER: Inhibition of human QIMR-WIL cell growth in a cell viability assay.

MHH-NB-11 = format: functional, cell-based, Homo sapiens;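 note: growth inhibition of human MHH-NB-11 cells, read out by a cell viability assay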
Description: SANGER: Inhibition of human MHH-NB-11 cell growth in a cell viability assay.

RS4-11 = format: functional, cell-based; settings: Homo sapiens;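 note: growth inhibition of RS4-11 cells, read out by a cell viability assay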
Description: SANGER: Inhibition of human RS4-11 cell growth in a cell viability assay.

EW-13 = format: functional, cell-based; settings: Homo sapiens;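 note: growth inhibition of EW-13 cells, read out with a cell viability assay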
Description: SANGER: Inhibition of human EW-13 cell growth in a cell viability assay.

ML-2 = format: functional, cell-based; settings: Homo sapiens;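 note: growth inhibition of ML-2 cells, measured with a cell viability readout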
Description: SANGER: Inhibition of human ML-2 cell growth in a cell viability assay.

VA-ES-BJ = format: functional, cell-based, Homo sapiens;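 note: growth inhibition of the VA-ES-BJ cell line, read out by a cell viability assay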
Description: SANGER: Inhibition of human VA-ES-BJ cell growth in a cell viability assay.

NCI-H69 = format: functional, cell-based; settings: Homo sapiens;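 note: growth inhibition of the cell line, read out with a cell viability assay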
Description: SANGER: Inhibition of human NCI-H69 cell growth in a cell viability assay.

LB996-RCC = format: functional, cell-based; settings: Homo sapiens
Description: SANGER: Inhibition of human LB996-RCC cell growth in a cell viability assay.

RPMI-7951 = format: functional, cell-based, Homo sapiens
Description: SANGER: Inhibition of human RPMI-7951 cell growth in a cell viability assay.

GI-1 = format: functional, cell-based, Homo sapiens;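 note: growth inhibition of human GI-1 cells, measured with a cell viability readout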
Description: SANGER: Inhibition of human GI-1 cell growth in a cell viability assay.

TE-5 = format: functional, cell-based, Homo sapiens;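 note: inhibition of cell growth, read out by a cell viability assay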
Description: SANGER: Inhibition of human TE-5 cell growth in a cell viability assay.

YKG-1 = format: functional, cell-based, Homo sapiens;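 note: cell growth inhibition, read out with a viability assay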
Description: SANGER: Inhibition of human YKG-1 cell growth in a cell viability assay.

EW-11 = format: functional, cell-based, Homo sapiens;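 note: growth inhibition of human EW-11 cells, measured with a cell viability assay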
Description: SANGER: Inhibition of human EW-11 cell growth in a cell viability assay.

SK-HEP1 = format: functional, cell-based, Homo sapiens, SK-HEP-1;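 note: cell viability readout used to quantify reduction in proliferation of human SK-HEP-1 cells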
Description: SANGER: Inhibition of human SK-HEP-1 cell growth in a cell viability assay.

NCI-H1304 = format: functional, cell-based; settings: Homo sapiens;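 note: growth inhibition of the cancer cell line, measured in a cell viability assay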
Description: SANGER: Inhibition of human NCI-H1304 cell growth in a cell viability assay.

SK-OV-3 = format: functional, cell-based, Homo sapiens;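 note: growth inhibition of SK-OV-3 human cells, read out with a cell viability assay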
Description: SANGER: Inhibition of human SK-OV-3 cell growth in a cell viability assay.

SW 962 = format: functional, cell-based, Homo sapiens;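 note: growth inhibition of human SW962 cells, read out by a cell viability assay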
Description: SANGER: Inhibition of human SW962 cell growth in a cell viability assay.

T84 = format: functional, cell-based, Homo sapiens;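 note: growth inhibition measured with a cell viability readout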
Description: SANGER: Inhibition of human T84 cell growth in a cell viability assay.

HPAF-II = format: functional, cell-based, Homo sapiens;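 note: growth inhibition of HPAF-II cells, read out with a cell viability assay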
Description: SANGER: Inhibition of human HPAF-II cell growth in a cell viability assay.

NCI-H2452 = format: functional, cell-based, Homo sapiens;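 note: growth inhibition of NCI-H2452 cells, read out with a cell viability assay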
Description: SANGER: Inhibition of human NCI-H2452 cell growth in a cell viability assay.

SK-MEL-24 = format: functional, cell-based; settings: Homo sapiens;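 note: growth inhibition read out by a cell viability assay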
Description: SANGER: Inhibition of human SK-MEL-24 cell growth in a cell viability assay.

SW 954 = format: functional, cell-based, Homo sapiens;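 note: growth inhibition of SW954 human cancer cells, read out as cell viability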
Description: SANGER: Inhibition of human SW954 cell growth in a cell viability assay.

HL-60 = format: functional, cell-based; settings: Homo sapiens;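 note: growth inhibition of human HL-60 cells, read out with a cell viability assay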
Description: SANGER: Inhibition of human HL-60 cell growth in a cell viability assay.

T47D = format: functional, cell-based, Homo sapiens;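 note: growth inhibition of human T47D cells, measured with a cell viability assay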
Description: SANGER: Inhibition of human T47D cell growth in a cell viability assay.

KU812 cell line = format: functional, cell-based; settings: Homo sapiens;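 note: growth inhibition of KU812 cells, read out with a cell viability assay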
Description: SANGER: Inhibition of human KU812 cell growth in a cell viability assay.

HO-1-N-1 = format: functional, cell-based, Homo sapiens;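 note: growth inhibition of human HO-1-N-1 cells, read out with a cell viability assay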
Description: SANGER: Inhibition of human HO-1-N-1 cell growth in a cell viability assay.

SK-N-FI = format: functional, cell-based, Homo sapiens;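 note: cell viability assay measuring growth inhibition of human SK-N-FI cells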
Description: SANGER: Inhibition of human SK-N-FI cell growth in a cell viability assay.

BFTC-909 = format: functional, cell-based, Homo sapiens
Description: SANGER: Inhibition of human BFTC-909 cell growth in a cell viability assay.

HSC-3 = format: functional, cell-based, Homo sapiens
Description: SANGER: Inhibition of human HSC-3 cell growth in a cell viability assay.

5637 = format: functional, cell-based, Homo sapiens
Description: SANGER: Inhibition of human 5637 cell growth in a cell viability assay.

HOP-92 = format: functional, cell-based, Homo sapiens;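 note: cell viability readout, with IC50 reflecting inhibition of HOP-92 cell growth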
Description: SANGER: Inhibition of human HOP-92 cell growth in a cell viability assay.

GR-ST = format: functional, cell-based; settings: Homo sapiens
Description: SANGER: Inhibition of human GR-ST cell growth in a cell viability assay.

NB7 = format: functional, cell-based; settings: Homo sapiens;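 note: growth inhibition of NB7 cells, read out with a cell viability assay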
Description: SANGER: Inhibition of human NB7 cell growth in a cell viability assay.

D283 Med = format: functional, cell-based, Homo sapiens
Description: SANGER: Inhibition of human D-283MED cell growth in a cell viability assay.

DBTRG-05MG = format: functional, cell-based, Homo sapiens;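 note: cell viability assay measuring growth inhibition of human DBTRG-05MG cells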
Description: SANGER: Inhibition of human DBTRG-05MG cell growth in a cell viability assay.

MFH-ino = format: functional, cell-based; settings: Homo sapiens;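 note: growth inhibition of human MFH-ino cells, read out by a cell viability assay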
Description: SANGER: Inhibition of human MFH-ino cell growth in a cell viability assay.

COc1cc(F)c(F)c(Nc2ccc(I)cc2F)c1NS(=O)(=O)C1(CC(O)CO)CC1 (configuration not stated)
IC50 (KG-1): > 5 µM
IC50 (IST-MEL1; Homo sapiens, IST-MEL1): 1.89 µM
IC50 (MOLT-16): > 5 µM
IC50 (MDA-MB-231; Homo sapiens, MDA-MB-231): 1.12 µM
IC50 (BB49-HNC; Homo sapiens, BB49-HNC): > 5 µM
IC50 (CHL-1; Homo sapiens, CHL-1): 1.18 µM
IC50 (LB2518-MEL; Homo sapiens, LB2518-MEL): 0.0775 µM
IC50 (SW780; Homo sapiens, SW780): 0.758 µM
IC50 (BT-20; Homo sapiens, BT-20): > 5 µM
IC50 (KYSE-410; Homo sapiens, KYSE-410): 3.35 µM
IC50 (RH-1; Homo sapiens, RH-1): > 5 µM
IC50 (KYSE-150 cell line; Homo sapiens, KYSE-150): 3.4 µM
IC50 (MOLT-4): > 5 µM
IC50 (SW1417; Homo sapiens, SW1417): > 5 µM
IC50 (ES5; Homo sapiens, ES5): > 5 µM
IC50 (OVCAR-4; Homo sapiens, OVCAR-4): > 5 µM
IC50 (QIMR-WIL): > 5 µM
IC50 (MHH-NB-11; Homo sapiens, MHH-NB-11): 1.06 µM
IC50 (RS4-11): > 5 µM
IC50 (EW-13): > 5 µM
IC50 (ML-2): 0.503 µM
IC50 (VA-ES-BJ; Homo sapiens, VA-ES-BJ): > 5 µM
IC50 (NCI-H69): > 5 µM
IC50 (LB996-RCC): > 5 µM
IC50 (RPMI-7951; Homo sapiens, RPMI-7951): 0.761 µM
IC50 (GI-1; Homo sapiens, GI-1): > 5 µM
IC50 (TE-5; Homo sapiens, TE-5): 4.52 µM
IC50 (YKG-1; Homo sapiens, YKG-1): 0.938 µM
IC50 (EW-11; Homo sapiens, EW-11): > 5 µM
IC50 (SK-HEP1; Homo sapiens, SK-HEP1): 2.05 µM
IC50 (NCI-H1304): > 5 µM
IC50 (SK-OV-3; Homo sapiens, SK-OV-3): > 5 µM
IC50 (SW 962; Homo sapiens, SW 962): 1.5 µM
IC50 (T84; Homo sapiens, T84): > 5 µM
IC50 (HPAF-II; Homo sapiens, HPAF-II): 1.02 µM
IC50 (NCI-H2452; Homo sapiens, NCI-H2452): > 5 µM
IC50 (SK-MEL-24): > 5 µM
IC50 (SW 954; Homo sapiens, SW 954): > 5 µM
IC50 (HL-60): 0.0324 µM
IC50 (T47D; Homo sapiens, T47D): > 5 µM
IC50 (KU812 cell line): 0.239 µM
IC50 (HO-1-N-1; Homo sapiens, HO-1-N-1): 0.591 µM
IC50 (SK-N-FI; Homo sapiens, SK-N-FI): 1.88 µM
IC50 (BFTC-909; Homo sapiens, BFTC-909): > 5 µM
IC50 (HSC-3; Homo sapiens, HSC-3): 0.307 µM
IC50 (5637; Homo sapiens): > 5 µM
IC50 (HOP-92; Homo sapiens, HOP-92): 0.683 µM
IC50 (GR-ST): > 5 µM
IC50 (NB7): 4.71 µM
IC50 (D283 Med; Homo sapiens, D283 Med): > 5 µM
IC50 (DBTRG-05MG; Homo sapiens, DBTRG-05MG): > 5 µM

Cc1cc([C@@H](C)Nc2ccccc2C(=O)O)c2nc(N3CCOCC3)cc(=O)n2c1 [AZD-6482]
IC50 (KG-1): > 5.12 µM
IC50 (IST-MEL1; ist-mel1): 2.52 µM and > 5.12 µM
IC50 (MOLT-16): 4.33 µM
IC50 (MDA-MB-231; Homo sapiens, MDA-MB-231): > 5.12 µM
IC50 (MDA-MB-231; mda-mb-231): > 5.12 µM
IC50 (BB49-HNC; bb49-hnc): > 5.12 µM and 0.73 µM
IC50 (CHL-1; Homo sapiens, CHL-1): > 5.12 µM
IC50 (CHL-1; chl-1): 4.72 µM
IC50 (LB2518-MEL; Homo sapiens, LB2518-MEL): > 5.12 µM
IC50 (LB2518-MEL; lb2518-mel): > 5.12 µM
IC50 (SW780; sw780): > 5.12 µM
IC50 (BT-20; bt-20): 0.592 µM and 1.79 µM
IC50 (KYSE-410; kyse-410): > 5.12 µM
IC50 (RH-1; rh-1): > 5.12 µM
IC50 (KYSE-150 cell line; kyse-150): > 5.12 µM
IC50 (MOLT-4): > 5.12 µM
IC50 (SW1417; sw1417): > 5.12 µM
IC50 (ES5; es5): > 5.12 µM
IC50 (OVCAR-4; ovcar-4): > 5.12 µM
IC50 (QIMR-WIL): 3.97 µM
IC50 (MHH-NB-11; mhh-nb-11): > 5.12 µM
IC50 (RS4-11): 0.738 µM
IC50 (EW-13): > 5.12 µM
IC50 (ML-2): 3.56 µM
IC50 (VA-ES-BJ; Homo sapiens, VA-ES-BJ): > 5.12 µM
IC50 (VA-ES-BJ; va-es-bj): > 5.12 µM
IC50 (NCI-H69): > 5.12 µM
IC50 (RPMI-7951; Homo sapiens, RPMI-7951): > 5.12 µM
IC50 (RPMI-7951; rpmi-7951): > 5.12 µM
IC50 (GI-1; gi-1): 1.32 µM and > 5.12 µM
IC50 (TE-5; Homo sapiens, TE-5): > 5.12 µM
IC50 (TE-5; te-5): > 5.12 µM
IC50 (YKG-1; Homo sapiens, YKG-1): > 5.12 µM
IC50 (YKG-1; ykg-1): > 5.12 µM
IC50 (EW-11; ew-11): > 5.12 µM
IC50 (SK-HEP1; Homo sapiens, SK-HEP1): > 5.12 µM
IC50 (SK-HEP1; sk-hep-1): > 5.12 µM
IC50 (NCI-H1304): > 5.12 µM
IC50 (MFH-ino): > 5.12 µM
IC50 (SK-OV-3; sk-ov-3): 1.2 µM and 4.67 µM
IC50 (SW 962; sw 962): > 5.12 µM and 1.5 µM
IC50 (T84; t84): > 5.12 µM
IC50 (HPAF-II; hpaf-ii): > 5.12 µM
IC50 (NCI-H2452; nci-h2452): > 5.12 µM
IC50 (SK-MEL-24): > 5.12 µM
IC50 (SW 954; sw 954): 4.5 µM and > 5.12 µM
IC50 (HL-60): > 5.12 µM
IC50 (T47D; Homo sapiens, T47D): 0.533 µM
IC50 (T47D; t47d): 0.938 µM
IC50 (KU812 cell line): 1.6 µM
IC50 (HO-1-N-1; ho-1-n-1): > 5.12 µM
IC50 (SK-N-FI; sk-n-fi): > 5.12 µM
IC50 (BFTC-909; bftc-909): > 5.12 µM
IC50 (HSC-3; hsc-3): > 5.12 µM
IC50 5637: > 5.12 µM
IC50 (5637; Homo sapiens): > 5.12 µM
IC50 (HOP-92; hop-92): > 5.12 µM and 4.58 µM
IC50 (GR-ST): > 5.12 µM
IC50 (NB7): > 5.12 µM
IC50 (D283 Med; d283 med): > 5.12 µM
IC50 (DBTRG-05MG; dbtrg-05mg): > 5.12 µM
